# Patent US11358936B2, “Lysyl oxidase-like 2 inhibitors and uses thereof” (PharmAkea, Inc., priority 2015, dated 2022)
# Counter-ions that a name gives are not always drawn.
# Biological target: human LOXL2 (Homo sapiens (Human), UniProt Q9Y4K0)
# Test: Human LOXL2 Amine Oxidase Activity Assay (Amplex Red fluorescence)
# Type: biochemical
# Settings: concentrated conditioned media from CHO cells stably expressing human LOXL2; 2 h at 37° C. preincubation; DAP substrate; read-out: IC50
# Experimental: LOXL2 amine oxidase activity is evaluated by measuring Amplex Red fluorescence using 10-20× concentrated conditioned media from CHO cells stably expressing human LOXL2. To assay for amine oxidase activity, 10 μL of the concentrated conditioned media is incubated with 2 μL of test compound in DMSO and 73 μL Assay Buffer (50 mM Borate Buffer, pH8) for 2 h at 37° C. After the 2 h incubation, 5 μl of 10 mM 1,5-Diaminopentane (DAP) diluted in Assay Buffer and 10 μl of Amplex Red Mix (8.5 μl Assay Buffer+0.5 μl of 10 mM Amplex Red+1 μl of 500 U/ml Horseradish Peroxidase) are added and the plate mixed and immediately placed on the FlexStaion for fluorescence measurements. Fluorescence is read in kinetic mode every 2 min for 1 hour at excitation=544 and emission=590. The amine oxidase activity is calculated from the slope of the linear portion of the curve.
# human LOXL2, sequence (Q9Y4K0 26-774): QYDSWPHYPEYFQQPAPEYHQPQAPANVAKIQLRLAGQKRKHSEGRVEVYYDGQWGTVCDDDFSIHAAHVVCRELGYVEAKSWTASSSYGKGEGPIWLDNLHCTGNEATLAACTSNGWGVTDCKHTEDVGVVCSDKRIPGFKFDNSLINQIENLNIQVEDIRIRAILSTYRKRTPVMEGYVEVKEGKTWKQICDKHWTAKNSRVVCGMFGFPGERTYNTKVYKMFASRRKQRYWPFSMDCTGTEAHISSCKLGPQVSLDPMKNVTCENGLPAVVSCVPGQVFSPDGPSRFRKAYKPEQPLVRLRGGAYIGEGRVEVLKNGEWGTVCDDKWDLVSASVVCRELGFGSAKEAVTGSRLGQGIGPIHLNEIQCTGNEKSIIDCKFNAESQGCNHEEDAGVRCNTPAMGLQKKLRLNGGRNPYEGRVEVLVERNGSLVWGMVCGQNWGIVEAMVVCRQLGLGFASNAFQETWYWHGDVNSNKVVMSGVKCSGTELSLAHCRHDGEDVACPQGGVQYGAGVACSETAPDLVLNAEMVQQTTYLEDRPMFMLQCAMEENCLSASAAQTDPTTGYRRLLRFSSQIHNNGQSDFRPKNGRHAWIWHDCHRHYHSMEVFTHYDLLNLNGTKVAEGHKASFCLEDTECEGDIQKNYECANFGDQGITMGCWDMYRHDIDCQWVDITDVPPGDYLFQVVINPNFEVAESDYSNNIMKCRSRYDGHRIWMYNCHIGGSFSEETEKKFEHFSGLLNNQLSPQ
row,IC50 [nM],SMILES
1,< 300,"NCc1ccnc(-c2ccc(C(=O)N3CCC(O)(C(F)(F)F)C3)cc2)c1 (racemic) [Compound 1-2, Racemic-(4-(4-(aminomethyl)pyridin-2-yl)phenyl)(3-hydroxy-3-(trifluoromethyl)pyrrolidin-1-yl)methanone hydrochloride]"
2,< 300,"NCc1ccnc(-c2cccc(C(=O)N3CCC(O)(C(F)(F)F)C3)c2)c1 (racemic) [Compound 1-6, Racemic-(3-(4-(aminomethyl)pyridin-2-yl)phenyl)(3-hydroxy-3-(trifluoromethyl)pyrrolidin-1-yl)methanone hydrochloride]"
3,< 300,"NCc1ccnc(Oc2ccc(C(=O)N3CCC(O)(C(F)(F)F)C3)cc2)c1 (racemic) [Compound 1-12, Racemic-4-((4-aminomethyl)pyridin-2-yl)oxy)phenyl)(3-hydroxy-3-(trifluoromethyl)pyrrolidin-1-yl)methanone hydrochloride]"
4,< 300,"NCc1ccnc(Oc2cccc(C(=O)N3CCC(O)(C(F)(F)F)C3)c2)c1 (racemic) [Compound 1-16, Racemic-(3-((4-(aminomethyl)pyridin-2-yl)oxy)phenyl)(3-hydroxy-3-(trifluoromethyl)pyrrolidin-1-yl)methanone hydrochloride]"
5,> 1000,NCc1ccnc(N2C[C@@H](O)[C@H](F)C2)c1 (racemic) [Compound 2-1]
6,> 1000,"NCc1ccnc(N2CCC(O)(C(F)(F)F)C2)c1 (racemic) [Compound 2-2, Racemic-1-(4-(Aminomethyl)pyridin-2-yl)-3-(trifluoromethyl)pyrrolidin-3-ol]"
7,< 300,"NCc1ccnc(C(=O)N2CCC(O)(C(F)(F)F)C2)c1 (racemic) [Compound 2-40, Racemic-(4-(aminomethyl)pyridin-2-yl)(3-hydroxy-3-(trifluoromethyl)pyrrolidin-1-yl)methanone hydrochloride]"
8,< 300,"NCc1ccnc(Oc2cccc3c2ccn3CC(=O)N2CCCC(O)(C(F)(F)F)C2)c1 (single isomer, unassigned) [Compound 2-28, (R) or (S)-2-(4-((4-(Aminomethyl)pyridin-2-yl)oxy)-1H-indol-1-yl)-1-(3-hydroxy-3-(trifluoromethyl)piperidin-1-yl)ethan-1-one hydrochloride]"
9,300 to 1000,"NCc1ccnc(Oc2cccc3c2ccn3CC(=O)N2CCCC(O)(C(F)(F)F)C2)c1 (single isomer, unassigned) [Compound 2-29, (R) or (S)-2-(4-((4-(aminomethyl)pyridin-2-yl)oxy)-1H-indol-1-yl)-1-(3-hydroxy-3-(trifluoromethyl)piperidin-1-yl)ethan-1-one hydrochloride]"
10,< 300,"COCCNC(=O)c1ccc(-c2cc(CN)ccn2)cc1 [Compound 1-1, 4-(4-(Aminomethyl)pyridin-2-yl)-N-(2-methoxyethyl)benzamide hydrochloride]"
11,< 300,"NCc1ccnc(-c2ccc(C(=O)Nc3ccccc3)cc2)c1 [Compound 1-3, 4-(4-(Aminomethyl)pyridin-2-yl)-N-phenylbenzamide hydrochloride]"
12,< 300,"NCc1ccnc(-c2ccc(C(=O)NCc3ccccc3)cc2)c1 [Compound 1-4, 4-(4-(Aminomethyl)pyridin-2-yl)-N-benzylbenzamide hydrochloride]"
13,< 300,"COCCNC(=O)c1cccc(-c2cc(CN)ccn2)c1 [Compound 1-5, 3-(4-(Aminomethyl)pyridin-2-yl)-N-(2-methoxyethyl)benzamide hydrochloride]"
14,< 300,"NCc1ccnc(-c2cccc(C(=O)Nc3ccccc3)c2)c1 [Compound 1-7, 3-(4-(Aminomethyl)pyridin-2-yl)-N-phenylbenzamide hydrochloride]"
15,< 300,"NCc1ccnc(-c2cccc(C(=O)NCc3ccccc3)c2)c1 [Compound 1-8, 3-(4-(Aminomethyl)pyridin-2-yl)-N-benzylbenzamide hydrochloride]"
16,< 300,"Cc1ccc(Cl)cc1NC(=O)c1cccc(-c2cc(CN)ccn2)c1 [Compound 1-9, 3-(4-(Aminomethyl)pyridin-2-yl)-N-(5-chloro-2-methylphenyl)benzamide hydrochloride]"
17,< 300,"NCc1ccnc(-c2cccc(C(=O)Nc3cc(Cl)cc4[nH]ccc34)c2)c1 [Compound 1-10, 3-(4-(Aminomethyl)pyridin-2-yl)-N-(6-chloro-1H-indol-4-yl)benzamide hydrochloride]"
18,300 to 1000,"COCCNC(=O)c1ccc(Oc2cc(CN)ccn2)cc1 [Compound 1-11, 4-((4-(Aminomethyl)pyridin-2-yl)oxy)-N-(2-methoxyethyl)benzamide hydrochloride]"
19,< 300,"NCc1ccnc(Oc2ccc(C(=O)Nc3ccccc3)cc2)c1 [Compound 1-13, 4-((4-(Aminomethyl)pyridin-2-yl)oxy)-N-phenylbenzamide hydrochloride]"
20,< 300,"NCc1ccnc(Oc2ccc(C(=O)NCc3ccccc3)cc2)c1 [Compound 1-14, 4-((4-(Aminomethyl)pyridin-2-yl)oxy)-N-benzylbenzamide hydrochloride]"

row,IC50 [nM],SMILES
1,< 300,"COCCNC(=O)c1cccc(Oc2cc(CN)ccn2)c1 [Compound 1-15, 3-((4-(Aminomethyl)pyridin-2-yl)oxy)-N-(2-methoxyethyl)benzamide hydrochloride]"
2,< 300,"NCc1ccnc(Oc2cccc(C(=O)Nc3ccccc3)c2)c1 [Compound 1-17, 3-((4-(Aminomethyl)pyridin-2-yl)oxy)-N-phenylbenzamide hydrochloride]"
3,< 300,"NCc1ccnc(Oc2cccc(C(=O)NCc3ccccc3)c2)c1 [Compound 1-18, 3-((4-Aminomethyl)pyridin-2-yl)oxy)-N-benzylbenzamide hydrochloride]"
4,< 300,"COc1cccc(NC(=O)c2cccc(Oc3cc(CN)ccn3)c2)c1 [Compound 1-19, 3-((4-(Aminomethyl)pyridin-2-yl)oxy)-N-(3-methoxyphenyl)benzamide hydrochloride]"
5,< 300,"COc1ccc(NC(=O)c2cccc(Oc3cc(CN)ccn3)c2)cc1 [Compound 1-20, 3-((4-Aminomethyl)pyridin-2-yl)oxy)-N-(4-methoxyphenyl)benzamide hydrochloride]"
6,< 300,"NCc1ccnc(Oc2cccc(C(=O)Nc3cccc(C(F)(F)F)c3)c2)c1 [Compound 1-21, 3-((4-Aminomethyl)pyridin-2-yl)oxy)-N-(3-(trifluoromethyl)phenyl)benzamide hydrochloride]"
7,< 300,"NCc1ccnc(Oc2cccc(C(=O)Nc3ccc(C(F)(F)F)cc3)c2)c1 [Compound 1-22, 3-((4-(Aminomethyl)pyridin-2-yl)oxy)-N-(4-(trifluoromethyl)phenyl)benzamide hydrochloride]"
8,< 300,"NCc1ccnc(Oc2cccc(C(=O)Nc3ccc(F)cc3)c2)c1 [Compound 1-23, 3-((4-Aminomethyl)pyridin-2-yl)oxy)-N-(4-fluorophenyl)benzamide hydrochloride]"
9,< 300,"NCc1ccnc(Oc2cccc(C(=O)Nc3ccc(F)cc3F)c2)c1 [Compound 1-24, 3-((4-Aminomethyl)pyridin-2-yl)oxy)-N-(2,4-difluorophenyl)benzamide hydrochloride]"
10,< 300,"NCc1ccnc(Oc2cccc(C(=O)Nc3ccc(Br)cc3)c2)c1 [Compound 1-25, 3-((4-(Aminomethyl)pyridin-2-yl)oxy)-N-(4-bromophenyl)benzamide hydrochloride]"
11,< 300,"COC(=O)c1ccc(NC(=O)c2cccc(Oc3cc(CN)ccn3)c2)cc1 [Compound 1-26, Methyl 4-(3-((4-(amindimethyl)pyridin-2-yl)oxy)benzamido)benzoate hydrochloride]"
12,< 300,"CCOC(=O)c1cccc(NC(=O)c2cccc(Oc3cc(CN)ccn3)c2)c1 [Compound 1-27, Ethyl 3-(3-((4-(aminomethyl)pyridin-2-yl)oxy)benzamido)benzoate hydrochloride]"
13,< 300,"NCc1ccnc(Oc2cccc(C(=O)Nc3cccc(C(=O)O)c3)c2)c1 [Compound 1-28, 3-(3-((4-(Aminomethyl)pyridin-2-yl)oxy)benzamido)benzoic acid hydrochloride]"
14,< 300,"NCc1ccnc(Oc2cccc(C(=O)Nc3ccc(C(=O)O)cc3)c2)c1 [Compound 1-29, 4-(3-((4-(Aminomethyl)pyridin-2-yl)oxy)benzamido)benzoic acid hydrochloride]"
15,< 300,"NCc1ccnc(Oc2cccc(C(=O)NCc3ccc(F)cc3F)c2)c1 [Compound 1-30, 3-((4-(Aminomethyl)pyridin-2-yl)oxy)-N-(2,4-difluorobenzyl)benzamide hydrochloride]"
16,< 300,"NCc1ccnc(Oc2cccc(C(=O)NCc3ccc(C(F)(F)F)cc3)c2)c1 [Compound 1-31, 3-((4-(Aminomethyl)pyridin-2-yl)oxy)-N-(4-(trifluoromethyl)benzyl)benzamide hydrochloride]"
17,< 300,"NCc1ccnc(Oc2cccc(C(=O)NCc3ccc(Br)cc3)c2)c1 [Compound 1-32, 3-((4-(Aminomethyl)pyridin-2-yl)oxy)-yl)-(4-bromobenzyl)benzamide hydrochloride]"
18,< 300,"COC(=O)c1ccc(CNC(=O)c2cccc(Oc3cc(CN)ccn3)c2)cc1 [Compound 1-33, Methyl 4-((3-((4-(aminomethyl)pyridin-2-yl)oxy)benzamido)methyl)benzoate hydrochloride]"
19,< 300,"NCc1ccnc(Oc2cccc(C(=O)NCc3ccc(C(=O)O)cc3)c2)c1 [Compound 1-34, 4-((3-((4-Aminomethyl)pyridin-2-yl)oxy)benzamido)methyl)benzoic acid hydrochloride]"
